Data set [1] can be described thus: Clinical safety and tolerability, dose-limiting toxicities (NCT03536728). The class given is in vivo. The source says:
Clinical Trial Outline. […] All solid tumor types are eligible for the trial. […] DFMO was delivered orally twice daily in gel capsules.
These DLTs involved vomiting, diarrhea and nausea, and inferred a potential dual drug targeting of the gastrointestinal (GI) tract in these patients. One patient experienced severe dehydration, requiring hospitalization. A similar observation was made in dogs in Aminex's 28-day toxicological testing. […] The clinical observations and the data obtained in dog studies, together, support the hypothesis that combined oral drug dosing levels and DFMO targeting of the GI tract are causing the intolerance.
In cohorts before Part 2, Cohort 4, 14 adults were treated at 1,200 mg or higher of AMXT 1501 daily, either once daily or BID, with no DLTs. A total of 18 patients were treated at 800 mg AMXT 1501 or higher daily with no DLTs. These patients included a couple of adult patients where Cmax values above 1,000 ng/mL AMXT 1501 plasma levels were observed, again with no DLTs observed.

A short description of data set [2]: Water solubility, bioavailability and Biopharmaceutics Classification System class. The class given is physicochemical. The following applies: oral. The source says:
Interim data for the pharmacokinetic (PK) behavior of both agents in human subjects has been generated.

Entries after “also recorded” stand apart in the source; their conditions may differ.

With `CCCCCCCCCCCCCCCC(=O)NCCCC[C@@H](N)C(=O)NCCCNCCCCNCCCN` [AMXT 1501 dicaprate], in data set [1] (oral 1,200 mg AMXT 1501 dicaprate alone, once daily or split BID), the clinical tolerability entry was “well tolerated clinically; also recorded: well-tolerated clinically”. Besides, in data set [1] (patients, similar dose levels), the “GI adverse effects on changing from once daily to twice daily (BID) delivery” value is given as “greatly reduced; also recorded: substantially minimized”. Also, the bioavailability result in data set [2] is “low bioavailability”.
